Here are results for two compounds from patent US20230074252A1, “DOSAGES AND METHODS FOR TREATING PULMONARY ARTERIAL HYPERTENSION WITH RODATRISTAT” (Altavant Sciences GmbH, priority 2020, published 2023).

A short description of series [1]: Stability in rat whole blood. It is filed as in vitro ADME. Conditions: 2 μM, 15 min. On the procedure: The metabolic stability of RVT-1201 was measured in vitro in hepatocytes, liver microsomes, lung microsomes, intestinal S9, lung S9, liver S9 and whole blood. The major metabolite detected in incubations with human hepatocytes was KAR5417 (KRS-02). RVT-1201 was rapidly metabolized to form KAR5417, with <5% remaining after a 2 h incubation. In heat deactivated rat hepatocytes, <5% RVT-1201 remained after 2 h incubation in the same study. Therefore, RVT-1201 metabolism (and KAR5417 formation) are not dependent on oxidative or conjugative enzymatic processes. Formation of KAR5417 from RVT-1201 is a de-esterification process, which implicates an esterase or esterases as the major mechanism. The enzyme(s) responsible for RVT-1201 metabolism to form KAR5417 has not been identified but are considered to be carboxylesterase(s). In addition, RVT-1201 metabolism and KAR5417 formation were investigated in rat and human whole blood(XT184028).

Series [2] can be described thus: Pro-drug to active ratio in portal versus peripheral blood. The class given is in vivo. Particulars: rat. The source says:
(§1) Calculation of Cmax, u, portal uses plasma Cmax, fraction of an oral dose absorbed (Fa) and measured unbound fraction in blood. For rodatristat, experimentally derived values were used for Fa determined in a rat 14C study (20%) and in vitro binding to human plasma (99.1%) and blood:plasma distribution (RB, 0.72). Walsky et al proposed a threshold where the ratio of Cmax, u, portal/Ki of <0.1 is associated with low risk. […] In the rat, the RE:R is ˜3-fold higher in portal blood compared to the periphery.

Series [3] in a line: Biopharmaceutics Classification System class. It is filed as physicochemical. From the text: RVT-1201 is a Biopharmaceutics Classification System (BCS) Class II or IV molecule with in vitro permeability consistent with oral bioavailability, which has been evaluated in a Phase 1 single ascending dose (SAD)/multiple ascending dose (MAD) study using a simple immediate release (IR) drug-in-capsule formulation (Clinical Study KAR5585-101). The active pharmaceutical ingredient used in this clinical study was polymorph Form 1. An optimized/enhanced oral formulation was developed with a goal to improve patient acceptance, increase the oral bioavailability relative to the IR capsule formulation to facilitate a dose reduction, reduce inter-subject variability and to optimize a formulation process suitable for larger scale manufacture. An oral IR tablet formulation and 2 spray-dried dispersion suspensions using polymorph Form 3 were investigated in a second clinical study (Clinical Study RVT-1201-1001). The purpose of this study was to assess the performance of selected formulations following oral administration to healthy subjects.

Series [4] can be described thus: Stability in human whole blood. The class given is in vitro ADME. The method, then:
However, in human whole blood incubations, no loss of RVT-1201 was observed. […] Therefore, metabolism of RVT-1201 was assigned to a cytosolic carboxylesterase (CES1) within the PBPK model. Although the enzyme responsible for RVT-1201 elimination and KAR5417 formation has not been identified, CES1 was selected to represent the enzymatic metabolism of RVT-1201 for this fit-for-purpose PBPK model.

Series [5] can be described thus: Elimination route in rat. The class given is in vivo. From the text:
(§2) The metabolism of rodatristat ethyl is predominantly by esterase mediated hydrolysis of the ester pro-drug moiety to rodatristat in liver tissue preparations from human, rat, dog, and cynomolgus monkey, and intestinal and lung tissues from rat and human. Hydrolysis of rodatristat ethyl was also observed in rat blood, and to a much lesser extent in dog and human blood.

Series [6] is described as follows: Blood:plasma distribution. It is filed as in vitro ADME. Conditions: whole blood; read-out: Blood:plasma distribution (RB).
Description: as §1

Series [7] in a line: Passive permeability in Caco 2 and MDCK cell studies. The class given is in vitro ADME. The source says: Consequently, the elimination of rodatristat into bile may be impacted by co-administration with agents that are BCRP inhibitors.
(Passage across Caco-2 layers is used to estimate intestinal permeability.)

The nature of series [8]: Metabolic stability in liver preparations across species. The class given is in vitro ADME.
Description: as §2

Each structure is given as a SMILES string.

For `CCOC(=O)[C@@H]1CC2(CCN(c3cc(O[C@H](c4ccc(Cl)cc4-c4ccccc4)C(F)(F)F)nc(N)n3)CC2)CN1` [Rodatristat ethyl, (S)-ethyl 8-(2-amino-6-((R)-1-(5-chloro-[1,1′-biphenyl]-2-yl)-2,2,2-trifluoroethoxy)pyrimidin-4-yl)-2,8-diazaspiro[4.5]decane-3-carboxylate], the “Loss in rat blood” value in series [1] is “Complete loss”. In addition, the “RE:R ratio higher in portal blood compared to the periphery” value in series [2] is reported as about 3 fold. The “Biopharmaceutics Classification System (BCS) Class” value in series [3] was “II or IV”. For the same compound, the “Loss in human whole blood incubations” value in series [4] is on record as “no loss”.
Turning to `Nc1nc(O[C@H](c2ccc(Cl)cc2-c2ccccc2)C(F)(F)F)cc(N2CCC3(CC2)CN[C@H](C(=O)O)C3)n1` [Rodatristat, (S)-8-(2-amino-6-((R)-1-(5-chloro-[1,1′-biphenyl]-2-yl)-2,2,2-trifluoroeth-oxy)pyrimidin-4-yl)-2,8-diazaspiro[4.5]decane-3-carboxylic acid], the Elimination route entry in series [5] was “largely eliminated unchanged in bile”. Further, the blood plasma ratio in series [6] was 0.72. Further, in series [7], the Passive permeability result is given as “very low passive permeability”. Besides, in series [8], the “Metabolic stability in liver preparations” value was “metabolically stable”.
